This note sets out measurements from PMC5653814, “Regiospecific Synthesis of Ring A Fused Withaferin A Isoxazoline Analogues: Induction of Premature Senescence by W-2b in Proliferating Cancer Cells” (Scientific Reports, 2017).

Read-outs that look alike come from different tables or passages of the source.

Data set [1] concerns 4T1 mouse mammary carcinoma. In words: In vivo tumor growth, 4T1 mouse mammary carcinoma model. The conditions noted are these: 25 mg/kg b.w. intraperitoneal. As for the experimental part: The experiment was performed according to the pre-standardized protocol with minor modifications. To evaluate the in vivo anti-tumor efficacy of W-2b, healthy female Balb/c mice (25–30 g) were taken. Animals were randomized into three groups, and six animals were taken per group. For the tumor cells implantation, mouse mammary carcinoma 4T1 cells (1 × 10^6 per 200 μL) diluted in serum-free RPMI medium were injected subcutaneously into the mammary pad of each mouse around the second right mammary gland. A week after tumor cell implantation, when the palpable mammary tumors develop, mice were injected intraperitoneally with either vehicle (normal saline) or 5-FU (25 mg/kg/b.w.) or W-2b (25 mg/kg/b.w.) in each alternative day for two weeks. Tumor sizes were measured in each alternate day after tumor cell injection, and the body weight was recorded once in a week. Mice were sacrificed on the 15th day after treatment initiation, and tumors were dissected out carefully from the mammary pad area.

For data set [2], the system named is fR2 cells. In words: SA-β-gal staining, fR2. Format: cell-based, human. The conditions noted are these: fR2, sub-toxic doses 1–2 µM.
For data set [3], the system named is MCF7 cells. The experiment in a line: Colony formation (clonogenic) assay, MCF7. In kind it is cell-based. The conditions noted are these: Homo sapiens, 120 h; MCF7, 1.0 µM, five days. As for the experimental part: (§1) The experiment was carried out according to the standardized protocol with some modifications. MCF7 and HCT-116 cells were trypsinized properly, seeded in 6 well plates at a density of 1 × 10^3 cells/well and incubated overnight. Then treatment was given to the cells with vehicle, doxorubicin and various concentrations of W-2b for five days. Cells were then washed, fixed with 4% paraformaldehyde for 10 min, rewashed twice and stained with 0.25% crystal violet solution for 1 h. The wells containing the cells were then washed thoroughly with distilled water to remove any extra stains and then air dried overnight. The plate was then observed under an inverted microscope and colonies from three random fields were counted, averaged and photographed with NIKON camera (D3100) at 4x magnification.

Data set [4] deals with fR2 cells. In words: MTT cell viability assay, fR2 normal breast epithelial cells. Format: cell-based, human. The conditions noted are these: 48 h, read-out: Cytotoxicity IC50, fR2. The method, then:
(§2) The cell viability assay was performed according to the procedure previously described with minor modifications. Briefly, MCF7, HCT-116 and fR2 cells were plated in 96 well plates at a density of 5 × 10^3 cells per well and incubated overnight. […] MTT dye solution (2.5 mg/mL) was introduced to the cells in medium 4 h before the completion of the treatment period and the formed formazan crystals were solubilized with DMSO. Optical density was measured with the help of a UV-visible spectrophotometer coupled with microplate reader (TECAN, Infinite M200 Pro), the percent inhibition was calculated and IC50 values were determined with the help of GraphPad Prism software (GraphPad software Inc. CA, USA).
(§3) Data were expressed as the mean ± standard deviation of three independent experiments performed and analyzed by Student’s t-test. IC50 values were determined with the help of GraphPad Prism software Version 5.0 (GraphPad Software, Inc., USA) by taking the log of inhibitor vs. response. A 2-sided value of *P < 0.05 was considered significant in all cases.
On the technique in general: Tetrazolium assays rely on reduction of a dye to a coloured formazan, in cell work by metabolically active cells.

Assay in data set [5]: as above
To be noted: human, fR2 normal breast epithelial cells, read-out: Cytotoxicity IC50, fR2. In kind it is cell-based, human. As for the experimental part:
as §2, §3

For data set [6], the system named is MCF7 cells. In words: MTT cell viability assay, MCF7. The conditions noted are these: read-out: Cytotoxicity IC50, MCF7. In kind it is cell-based, human. The method, then: as §2, §3
In data set [7] the test system is MCF7 cells. The experiment in a line: SA-β-gal activity assay, MCF7. To be noted: MCF7, sub-toxic concentrations, five days. In kind it is cell-based, human. The method, then:
(§4) The procedure was followed as described previously with some modifications. Briefly, MCF7 and HCT-116 cells (0.4 × 10^6 per well) were seeded in six-well plates and treated with indicated concentrations of W-2b along with WA, vehicle and positive control doxorubicin for five days. Cells were accordingly washed twice with PBS, fixed with 4% paraformaldehyde for 5 min, rinsed twice with PBS and incubated with freshly prepared staining solution (40 mM citric acid/Na phosphate buffer, 5 mM K4[Fe(CN)6] 3H2O, 5 mM K3[Fe(CN)6], 150 mM sodium chloride, 2 mM magnesium chloride and 1 mg/ml X-gal in distilled water, pH 6.0) for 48 h at 37 °C. Stained cells were thoroughly washed and air dried in dark. Cells were then observed under bright field microscope (NIKON) for the SA-β-gal positive cells and images were captured at 20x magnification.

Data set [8] has as its system HCT-116 cells. The experiment in a line: SA-β-gal activity assay, HCT-116. Format: cell-based, human. To be noted: HCT-116, sub-toxic concentrations, five days. The method, then: as §4
For data set [9], the system named is MCF7 cells. In words: Flow cytometric cell cycle analysis (propidium iodide), MCF7. In kind it is cell-based, human. The conditions noted are these: MCF7, 1.0 µM, 48 h; vehicle 13.03%. The method, then:
MCF7 cells were seeded at a density of 0.4 × 10^6 cells/well in 35 mm dishes and incubated overnight at 37 °C and 5% CO2. Next day, cells were treated with vehicle and W-2b at indicated concentrations for 48 h. They were then trypsinized, centrifuged at 2000 rpm for 3 min, washed twice with ice-cold PBS and fixed with ice-cold 70% ethanol (v/v) for 1 hour at 4 °C. Cells were then pelleted down at 2000 rpm for 3 min, washed with PBS and incubated first with 200 μg/ml of RNase A in PBS at 37 °C water bath for 90 min and then with 50 μg/mL of propidium iodide (PI) at room temperature for 30 min in dark. The samples were then analyzed by BD Accuri C6 flow cytometer (BD Biosciences).

Data set [10] concerns HCT-116 cells. The experiment in a line: MTT cell viability assay, HCT-116. Format: cell-based, human. The conditions noted are these: read-out: Cytotoxicity IC50, HCT-116. The method, then: as §2, §3
Data set [11] has as its system HCT-116 cells. The experiment in a line: Colony formation (clonogenic) assay, HCT-116. In kind it is cell-based. To be noted: Homo sapiens, 120 h; HCT-116, 1.5 µM, five days. As for the experimental part: as §1

For the compound `CC1=C(CO)C(=O)OC(C(C)C2CCC3C4CC5OC56C(O)C5ON=C(c7ccc([N+](=O)[O-])cc7)C5C(=O)C6(C)C4CCC23C)C1` (stereo not drawn) [W-2b, 4-nitrophenyl-2-isoxazoline withaferin A], the “Inhibition in tumor volume” value in data set [1] (each alternate day for two weeks, Balb/c mice) is given as 83.8%. Moreover, the “Inhibition in tumor weight” value in data set [1] (each alternate day for two weeks, vs normal saline group) turned out to be 91.2%. The “Tolerability of treated animals” value in data set [1] (two weeks) is “remained healthy without any serious side effects or mortality”. In addition, the SA-β-gal positive cells is reported as 15–19% in data set [2], 58% in data set [7] and 53% in data set [8]. Besides, the inhibition at 1 µM in data set [3] was above 70%. Also, the IC50 is 35500 ± 6120 nM in [4]; 705 ± 59 nM in [6] (48 h); 881 ± 52 nM in data set [6] (Homo sapiens, MCF7, 24 h, 24 h); 682 ± 75 nM in [6] (Homo sapiens, MCF7, 72 h, 72 h); 1250 ± 156 nM in data set [10] (48 h); 1480 ± 129 nM in data set [10] (Homo sapiens, HCT-116, 24 h, 24 h). For the same compound, in data set [10] (Homo sapiens, HCT-116, 72 h, 72 h), the IC50 worked out at 1030 ± 330 nM. In addition, the IC50 at 24 h in data set [5] (24 h) came out at 39700 ± 7300 nM. The IC50 at 72 h in data set [5] (72 h) came to 33900 ± 8230 nM. The “Cells in G2/M phase” value in data set [9] worked out at 45.5%. The compound also returned an inhibition at 1.5 µM in data set [11] above 70%.

As usually defined, the inhibition is how much of the control response was suppressed. Read a high inhibition as strong suppression. Broadly, the IC50 is the concentration at which inhibition is half-maximal.
